Reference: PubChem BioAssay (NCI)
“And” between values parts separate entries of the source, which are not always exact repeats. Identical values can stand only once.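 Values below derive from 48-hour exposures of cells grown in 96-well plates, with endpoints linearly interpolated between the two concentrations bracketing the appropriate inhibition level. GI50 = concentration required for 50% inhibition of growth. TGI is the concentration that stops growth completely.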

Assays:
Experiment in all cases: DTP human tumour cell line panel, 48 h
DU-145 prostate = test system: DU-145 prostate
IGROV1 ovarian = test system: IGROV1 ovarian
M14 melanoma = test system: M14 melanoma
NCI-H23 lung = test system: NCI-H23 lung
OVCAR-8 ovarian = test system: OVCAR-8 ovarian
SF-268 CNS = test system: SF-268 CNS
SNB-19 CNS = test system: SNB-19 CNS
SNB-75 CNS = test system: SNB-75 CNS

SMILES	GI50 (DU-145 prostate)	TGI (DU-145 prostate)	GI50 (IGROV1 ovarian)	TGI (IGROV1 ovarian)	GI50 (M14 melanoma)	TGI (M14 melanoma)	GI50 (NCI-H23 lung)	TGI (NCI-H23 lung)	GI50 (OVCAR-8 ovarian)	TGI (OVCAR-8 ovarian)	GI50 (SF-268 CNS)	TGI (SF-268 CNS)	GI50 (SNB-19 CNS)	TGI (SNB-19 CNS)	GI50 (SNB-75 CNS)	TGI (SNB-75 CNS)
Cc1cc(Cl)ccc1Nc1nc(C(F)(F)F)ccc1C(=O)N/N=C/c1c(Cl)cccc1Cl	0.548 µM	> 100 µM	0.357 µM	6.29 µM	0.536 µM	> 100 µM	0.489 µM	> 100 µM	0.445 µM	> 100 µM	0.354 µM	> 36.4 µM	0.683 µM	> 56.6 µM	1.34 µM	> 100 µM
COc1cc([C@@H]2c3cc4c(cc3[C@H](O)[C@H]3COC(=O)[C@@H]23)OCO4)cc(OC)c1OC	0.544 µM and 0.237 µM	–	0.423 µM and 0.24 µM	> 100 µM	0.355 µM and 0.135 µM	> 100 µM	0.78 µM and 0.239 µM	> 100 µM	0.707 µM and 0.397 µM	> 100 µM	0.722 µM and 0.445 µM	> 100 µM	0.462 µM and 0.231 µM	> 100 µM	0.256 µM and 0.0455 µM	> 100 µM
COc1cc2c3c(n(CCCN4CCOCC4)c(=O)c2cc1OC)-c1cc2c(cc1C3=O)OCO2	0.612 µM	> 21.6 µM	> 61 µM	> 100 µM	0.9 µM	22.2 µM	1.97 µM	27.2 µM	3.62 µM	> 100 µM	0.954 µM	> 100 µM	> 38.6 µM	> 100 µM	8.29 µM	> 100 µM
C(#Cc1ccccc1C#Cc1ccccn1)c1ccc(OCCCCCCOc2ccc(C#Cc3ccccc3C#Cc3ccccn3)cc2)cc1	6.36 µM	13 µM	5.63 µM	17.2 µM	7.47 µM	17.6 µM	6.45 µM	16.2 µM	4.16 µM	14.6 µM	2.52 µM	10.8 µM	4.39 µM	11.4 µM	5.26 µM	13.8 µM
Cn1c2ccccc2c(=S)c2cc(NC(=O)CCCCC(=O)Nc3ccc4c(c3)c(=S)c3ccccc3n4C)ccc21	–	> 100 µM	–	> 100 µM	–	> 100 µM	–	> 100 µM	–	> 100 µM	–	> 100 µM	–	> 100 µM	–	> 100 µM
O=C(O)c1cn(C2CC2)c2cc(N3CCN(C(=O)Nc4nc(-c5ccc(Cl)cc5)cs4)CC3)c(F)cc2c1=O	2.29 µM	> 100 µM	0.815 µM	> 100 µM	2.86 µM	> 100 µM	2.08 µM	39.5 µM	1.86 µM	50.9 µM	0.828 µM	> 100 µM	2.74 µM	> 100 µM	2.25 µM	20.5 µM
CCOC(=O)C1=C(N)Oc2cc(OC)ccc2C1c1ccc(F)c(F)c1 (configuration not stated)	2.56 µM	11.4 µM	2.72 µM	20.1 µM	0.483 µM	13.5 µM	2.89 µM	18.4 µM	3.28 µM	19.2 µM	8.56 µM	23.5 µM	1.83 µM	17.4 µM	1.64 µM	11.1 µM
O=C(CN/C=C\C(=O)c1cc(Cl)ccc1Cl)c1ccccc1	33.4 µM	> 100 µM	29.1 µM	> 100 µM	24 µM	59.6 µM	19.1 µM	44.2 µM	26.4 µM	71.4 µM	24.8 µM	83.4 µM	47.4 µM	> 100 µM	–	–
COc1cc2c(cc1C)NC(=O)/C2=C/c1c(C)nc2sc(C)cn12	> 100 µM	> 100 µM	26.8 µM	> 100 µM	44.2 µM	> 100 µM	61.7 µM	> 100 µM	> 100 µM	> 100 µM	85.3 µM	> 100 µM	> 100 µM	> 100 µM	–	–
O=C(/C=C/c1ccc2c(c1)OCO2)c1ccccc(=O)c1O	–	46.7 µM	–	41.8 µM	–	–	–	–	–	54.2 µM	–	35.9 µM	–	51.8 µM	–	33.1 µM
COc1ccc(/C=C/C(=O)c2ccc(NC(=O)CSc3nnc(-c4cc(OC)c(OC)c(OC)c4)o3)cc2)cc1	1.75 µM	3.21 µM	–	–	1.6 µM	3.3 µM	1.88 µM	3.97 µM	2.32 µM	5.73 µM	1.79 µM	3.96 µM	1.78 µM	3.56 µM	1.47 µM	3.15 µM
C[C@H]1[C@H](C)CC[C@]2(C(=O)O)CC[C@]3(C)C(=CC[C@@H]4[C@@]5(C)CC[C@H](OC(=O)/C=C\c6ccc(O)cc6)C(C)(C)[C@@H]5CC[C@]43C)[C@H]12	4.07 µM	17.6 µM	15.5 µM	> 100 µM	–	–	3.48 µM	15.9 µM	2.6 µM	9.1 µM	3.23 µM	14.8 µM	10.5 µM	31.1 µM	22.3 µM	45.9 µM
Cc1ccc(C2CC(c3cccc(Nc4ccncc4)c3)=NN2c2ccc(Cl)cc2)cc1 (configuration not stated)	1.8 µM	3.21 µM	1.72 µM	3.24 µM	1.73 µM	3.39 µM	1.77 µM	3.39 µM	–	–	–	–	–	–	1.36 µM	2.87 µM
COc1ccc(C2SC(C)C(=O)N2NC(=O)C(O)c2ccccc2)cc1 (configuration not stated)	> 100 µM	> 100 µM	> 100 µM	> 100 µM	> 100 µM	> 100 µM	–	–	> 100 µM	> 100 µM	> 100 µM	> 100 µM	> 100 µM	> 100 µM	60.3 µM	> 100 µM
C#CCOc1c(OC)cc(C(=O)/C(C)=C/c2cccc(N=[N+]=[N-])c2)cc1OC	0.296 µM	> 100 µM	0.766 µM	> 100 µM	0.178 µM	> 100 µM	0.632 µM	> 100 µM	0.427 µM	> 100 µM	0.637 µM	> 100 µM	0.333 µM	> 100 µM	–	–
Cn1cc(-c2nc(-c3cn(C)c4ncccc34)cs2)c2cc(F)ccc21	2.79 µM	21.9 µM	–	–	0.777 µM	12.4 µM	2.76 µM	> 100 µM	3.26 µM	> 100 µM	3.38 µM	47.2 µM	2.89 µM	> 100 µM	1.27 µM	4.27 µM
